Source: patent US3968214A, “5-Methylthio-pyrimidine vasodilators” (Produits Chimiques Ugine Kuhlmann, priority 1973, dated 1976)
Where two headings read alike, the source gives them in different places.

Key:
[1] = test system: isolated duodenum of rabbit, spasms induced by barium chloride; assay: Spasmolytic activity, musculotrope versus BaCl2, isolated duodenum (Magnus)
Excerpt: (§1) The spasmolytic activities are known by means of the technique of R. Magnus (Arch. Ges. Physiol., 1904, 102, 123) on the isolated duodenum of rabbits. The spasmolytic neurotropes inhibit the contractions of the organ caused by acetylcholine, while the musculotropes prevent the spasms induced by barium chloride. The EC 50 expressed in mg/litre are collected in the following Table where EC denotes "Effective concentration".

glycemia = assay: Hypoglycemiant activity, variation of glycemia after 4 days of daily oral treatment; assay type: in vivo, male CD rats (Charles RIVER); conditions: rat
Protocol: The hypoglycemiant properties have been studied on the male CD rats (Charles RIVER) weighing 200 to 250 g, in which the glycemia is controlled before treatment and then after 4 days of daily oral treatment. The seric glucose is determined by the method of W. S. Hoffmann (J. Biol. Chem., 1937, 120, 51). Groups of 10 rats are used and the hypoglycemiant activity is expressed by the percentage variation of the average glycemia of the treated animals with respect to that of the controls. If it is necessary, the statistical significance of the difference is determined by the test of the coefficient "t" of Student.

[2] = Acute toxicity in mice, intravenous and oral (LD50); assay type: in vivo; conditions: mouse, in vivo
Excerpt: The acute toxicities of the compounds according to the invention have been determined CD 1 mice (Charles RIVER) by intravenous and oral methods. The LD50 calculated by the quantal cumulative method of J. J. Reed and H. Muench (Amer. J. Hyg. 1938, 27, 493) are collected in the following Table: […]

[3] = test system: isolated duodenum of rabbit, contractions caused by acetylcholine; assay: Spasmolytic activity, neurotrope versus acetylcholine, isolated duodenum (Magnus)
Excerpt: as §1

isolated rabbit heart = assay: Coronaro-dilatatory activity, isolated heart (Langendorff modified by Anderson); conditions: for coronaro-dilatatory activity (in words): isolated rabbit heart
Excerpt: The technique of Langendorff, modified by F. E. Anderson, (J. Pharmacol. exp. Therap., 1948, 91, 135) using isolated rabbit heart permits the coronaro-dilatatory activity of the products to be studied. In this text, the cardiac perfusion liquid contains 0.5 UI/1 of posthypophysis. The results are expressed in the percentage variation of the coronary flow after affusion of the product to be tested, compared with the initial flow.

[4] = test system: abdominal spasms caused in mice by 2-phenyl-1,4-benzoquinone; assay: Analgesic activity: abdominal spasms caused by intraperitoneal 2-phenyl-1,4-benzoquinone (P.B.Q.); assay type: in vivo; conditions: for ED50: Mus musculus, mice, oral, read-out: Analgesic activity P.B.Q. AD 50; for analgesic activity (in words): given orally to mice
Excerpt: The analgesic activities have been investigated with respect to abdominal spasms caused in mice by the intraperitoneal injection of 2-phenyl-1,4-benzoquinone according to E. Siegmund, E. Cadmus and G. Lu, Proc. Soc. exp. Biol. Med., 1957, 95, 729-731. The central antiserotonin properties have been determined by the "Head-twitch" technique in mice according to S. J. Corne, R. W. Pickering and B. T. Warner, Brit. J. Pharmacol., 1963, 20, 106-120. In this test, the antiserotonin products inhibit the sudden shaking of the head induced in mice by 5-hydroxy-tryptophan, the biological precursor of serotonin.

[5] = test system: serotonin (shaking of the head induced by 5-hydroxy-tryptophan); assay: Central antiserotonin activity: Head-twitch induced by 5-hydroxy-tryptophan; assay type: in vivo, mice; conditions: for ED50: Mus musculus, mice, oral, read-out: Antiserotonin activity Head-twitch AD 50; for central antiserotonin activity (in words): given orally to mice
Excerpt: The analgesic activities have been investigated with respect to abdominal spasms caused in mice by the intraperitoneal injection of 2-phenyl-1,4-benzoquinone according to E. Siegmund, E. Cadmus and G. Lu, Proc. Soc. exp. […] The central antiserotonin properties have been determined by the "Head-twitch" technique in mice according to S. J. Corne, R. W. Pickering and B. T. Warner, Brit. […] In this test, the antiserotonin products inhibit the sudden shaking of the head induced in mice by 5-hydroxy-tryptophan, the biological precursor of serotonin.

[6] = intravenous, read-out: Acute toxicity to mice LD 50, intravenous
[7] = oral, read-out: Acute toxicity to mice LD 50, orally

Compound	Spasmolytic activity EC 50, musculotrope versus BaCl2 [1]	hypoglycemiant properties (in words) (glycemia)	LD50 [2, 6]	LD50 [2, 7]	Spasmolytic activity EC 50, neurotrope versus acetylcholine [3]	neurotropic spasmolytic activity (in words) [3]	Increase of the coronary flow (isolated rabbit heart; dose 0.003 mg)	Increase of the coronary flow (isolated rabbit heart; dose 0.01 mg)	Increase of the coronary flow (isolated rabbit heart; dose 0.03 mg)	Increase of the coronary flow (isolated rabbit heart; dose 0.10 mg)	coronaro-dilatatory activity (in words) (isolated rabbit heart)	ED50 [4]	analgesic activity (in words) [4]	ED50 [5]	central antiserotonin activity (in words) [5]	Increase of the coronary flow (isolated rabbit heart; dose 0.30 mg)	musculotropic EC 50 [1]	musculotropic spasmolytic activity (in words) [1]
COc1nc(N(C)c2ccccc2)nc(NCCN(C(C)C)C(C)C)c1SC [Example 24, 2-N-methyl-N,phenylamino-4-(2'-diisopropylamino)-ethylamino-5-methyl-thio-6-methoxy-pyrimidine]	0.13 µg/mL	strong hypoglycemiant properties	22 mg/kg	600 mg/kg	0.12 µg/mL	necessary to call attention	26%	32%	58%	67%	interesting coronaro-dilatatory activities	–	–	–	–	–	–	–
CSc1c(Cl)nc(N(C)c2ccccc2)nc1NCCN(C(C)C)C(C)C [Example 12, 2-N-methyl-N-phenylamino-4-(2'-di-isopropyl-amino)-ethylamino-5-methylthio-6-chloro-pyrimidine]	–	strong hypoglycemiant properties	–	600 mg/kg	–	–	–	–	–	–	–	100 mg/kg	–	–	–	–	–	–
CSc1c(Cl)nc(N(C)c2ccccc2)nc1NCCN(C)C [Example 7, 2-N-methyl-N-phenyl-amino-4-(2'-dimethyl-amino)-ethylamino-5-methylthio-6-chloro-pyrimidine]	0.16 µg/mL	–	80 mg/kg	200 mg/kg	1.20 µg/mL	–	38%	40%	37%	77%	interesting coronaro-dilatatory activities	60 mg/kg	marked analgesic activity	–	–	–	–	–
CCCN(CCC)c1nc(Cl)c(SC)c(NCCN(CC)CC)n1 [Example 5, 2-dipropylamino-4-(2'-diethylamino)-ethylamino-5-methylthio-6-chloro-pyrimidine]	0.90 µg/mL	strong hypoglycemiant properties	–	800 mg/kg	1.00 µg/mL	–	–	–	–	–	–	> 300 mg/kg	–	100 mg/kg	–	–	–	–
CSc1c(Cl)nc(N(C)c2cccc(C(F)(F)F)c2)nc1NCCN(C(C)C)C(C)C [Example 17, 2-N-methyl-N(3-trifluoromethyl-phenyl)-amino-4-(2'-diisopropylamino)-ethylamino-5-methylthio-6-chloro-pyrimidine]	0.50 µg/mL	strong hypoglycemiant properties	–	> 900 mg/kg	–	–	–	–	–	–	–	–	–	400 mg/kg	–	–	–	–
CCN(CC)c1nc(Cl)c(SC)c(NCCN(C(C)C)C(C)C)n1 [Example 16, 2-diethylamino-4-(2'-diisopropylamino)-ethylamino-5-methylthio-6-chloro-pyrimidine]	0.30 µg/mL	–	–	600 mg/kg	–	–	16%	52%	–	–	interesting coronaro-dilatatory activities	70 mg/kg	marked analgesic activity	90 mg/kg	central antiserotonine	–	–	–
CCN(CC)CCNc1nc(N(C)c2ccc(Cl)cc2)nc(Cl)c1SC [Example 6, 2-N-methyl-2-N-(4-chloro-phenyl)amino-4-(2'-diethylamino)-ethylamino-5-methylthio-6-chloro-pyrimidine]	–	strong hypoglycemiant properties	–	610 mg/kg	–	–	–	–	–	–	–	–	–	65 mg/kg	central antiserotonine	–	–	–
CSc1c(Cl)nc(N(C)c2ccc(Cl)cc2)nc1NCCN(C(C)C)C(C)C [Example 18, 2-N-methyl-N(4-chloro-phenyl)amino-4-(2'-diisopropyl-amino)-ethylamino-5-methylthio-6-chloro-pyrimidine]	–	strong hypoglycemiant properties	–	> 900 mg/kg	–	–	–	–	–	–	–	> 300 mg/kg	–	205 mg/kg	–	–	–	–
CSc1c(Cl)nc(N2CCCCC2)nc1NCCN(C(C)C)C(C)C [Example 13, 2-piperidino-4-(2'-diisopropylamino)-ethylamino-5-methylthio-6-chloro-pyrimidine]	–	strong hypoglycemiant properties	–	> 900 mg/kg	–	–	–	–	–	–	–	–	–	185 mg/kg	–	–	–	–
CCN(CC)CCNc1nc(N(CC)CC)nc(Cl)c1SC [Example 3, 2-diethylamino-4-(2'-diethylamino)-ethyl-amino-5-methylthio-6-chloro-pyrimidine]	0.30 µg/mL	–	64 mg/kg	225 mg/kg	1.30 µg/mL	–	–	–	–	–	–	> 100 mg/kg	–	35 mg/kg	central antiserotonine	–	–	–
CCN(CC)CCNc1nc(N(C)c2ccccc2)nc(Cl)c1SC [Example 2, 2-N-methyl-N-phenylamino-4-(2'-diethylamino)-ethylamino-5-methylthio-6-chloro-pyrimidine]	0.80 µg/mL	–	43 mg/kg	225 mg/kg	1.50 µg/mL	–	–	56%	58%	64%	interesting coronaro-dilatatory activities	> 100 mg/kg	–	95 mg/kg	central antiserotonine	91%	–	–
COc1nc(N(C)Cc2ccccc2)nc(NCCN(C(C)C)C(C)C)c1SC [Example 27, 2-N-methyl-N-benzyl-amino-4-(2'-diiso-propyl-amino)-ethylamino-5-methyl-thio-6-methoxy-pyrimidine]	0.08 µg/mL	–	18.5 mg/kg	600 mg/kg	–	–	–	–	–	–	–	95 mg/kg	marked analgesic activity	–	–	–	less than 0.1 mg/liter	quite remarkable activities
